Laboratory results as given in US12522601B2, “1,3,4-oxadiazole derivative compounds as histone deacetylase 6 inhibitor, and the pharmaceutical composition comprising the same” (CHONG KUN DANG PHARMACEUTICAL CORP., priority 2020, dated 2026).

Columns and labels:
human recombinant HDAC1 = target: T1, human recombinant HDAC1 (Homo sapiens, UniProt Q13547); assay: In vitro HDAC enzyme activity inhibition assay, HDAC1 (HDAC Fluorimetric Drug Discovery Kit); assay type: biochemical; conditions: human recombinant HDAC1, Fluor de Lys-SIRT1 substrate 10 μM, 30° C. for 60 minutes
T1 construct: purchased Enzo Life Sciences, Inc. BML-SE456
Experimental: (§1) In order to confirm the selectivity of the compounds represented by Chemical Formula I of the present invention to HDAC6 through HDAC1 and HDAC6 enzyme activity inhibition experiments, a comparison experiment was performed using the material that has already been developed as a control group.
(§2) HDAC enzyme activity was measured using the HDAC Fluorimetric Drug Discovery Kit (Enzo Life Sciences, Inc., BML-AK511, 516). For the HDAC1 enzyme activity test, human recombinant HDAC1 (BML-SE456) was used as an enzyme source and Fluor de Lys®-SIRT1 (BNL-KI177) was used as a substrate. After dispensing 5-fold diluted compounds into a 96-well plate, 0.3 μg of enzyme and 10 μM substrate were added to each well of the plate and allowed to react at 30° C. for 60 minutes. Next, Fluor de Lys® Developer II (BML-KI176) was added and reacted for 30 minutes to complete the reaction, and then the fluorescence values (Ex 360, Em 460) were measured using a multi-plate reader (Flexstation 3, Molecular Device). The HDAC6 enzymes were tested using human recombinant HDAC6 (382180) from Calbiochem Inc., according to the same protocol as the HDAC1 enzyme activity test method. With respect to the final result values, respective IC50 values were calculated using GraphPad Prism 4.0 program, and results thereof were summarized in Table 5 below.

human recombinant HDAC6 = target: T2, human recombinant HDAC6 (Homo sapiens, UniProt Q9UBN7); assay: In vitro HDAC enzyme activity inhibition assay, HDAC6 (HDAC Fluorimetric Drug Discovery Kit); assay type: biochemical; conditions: for HDAC6 Selectivity (fold): HDAC6 versus HDAC1; for IC50: human recombinant HDAC6, same protocol as the HDAC1 test
T2 construct: purchased Calbiochem Inc. 382180
T2 sequence (Q9UBN7 1-1215): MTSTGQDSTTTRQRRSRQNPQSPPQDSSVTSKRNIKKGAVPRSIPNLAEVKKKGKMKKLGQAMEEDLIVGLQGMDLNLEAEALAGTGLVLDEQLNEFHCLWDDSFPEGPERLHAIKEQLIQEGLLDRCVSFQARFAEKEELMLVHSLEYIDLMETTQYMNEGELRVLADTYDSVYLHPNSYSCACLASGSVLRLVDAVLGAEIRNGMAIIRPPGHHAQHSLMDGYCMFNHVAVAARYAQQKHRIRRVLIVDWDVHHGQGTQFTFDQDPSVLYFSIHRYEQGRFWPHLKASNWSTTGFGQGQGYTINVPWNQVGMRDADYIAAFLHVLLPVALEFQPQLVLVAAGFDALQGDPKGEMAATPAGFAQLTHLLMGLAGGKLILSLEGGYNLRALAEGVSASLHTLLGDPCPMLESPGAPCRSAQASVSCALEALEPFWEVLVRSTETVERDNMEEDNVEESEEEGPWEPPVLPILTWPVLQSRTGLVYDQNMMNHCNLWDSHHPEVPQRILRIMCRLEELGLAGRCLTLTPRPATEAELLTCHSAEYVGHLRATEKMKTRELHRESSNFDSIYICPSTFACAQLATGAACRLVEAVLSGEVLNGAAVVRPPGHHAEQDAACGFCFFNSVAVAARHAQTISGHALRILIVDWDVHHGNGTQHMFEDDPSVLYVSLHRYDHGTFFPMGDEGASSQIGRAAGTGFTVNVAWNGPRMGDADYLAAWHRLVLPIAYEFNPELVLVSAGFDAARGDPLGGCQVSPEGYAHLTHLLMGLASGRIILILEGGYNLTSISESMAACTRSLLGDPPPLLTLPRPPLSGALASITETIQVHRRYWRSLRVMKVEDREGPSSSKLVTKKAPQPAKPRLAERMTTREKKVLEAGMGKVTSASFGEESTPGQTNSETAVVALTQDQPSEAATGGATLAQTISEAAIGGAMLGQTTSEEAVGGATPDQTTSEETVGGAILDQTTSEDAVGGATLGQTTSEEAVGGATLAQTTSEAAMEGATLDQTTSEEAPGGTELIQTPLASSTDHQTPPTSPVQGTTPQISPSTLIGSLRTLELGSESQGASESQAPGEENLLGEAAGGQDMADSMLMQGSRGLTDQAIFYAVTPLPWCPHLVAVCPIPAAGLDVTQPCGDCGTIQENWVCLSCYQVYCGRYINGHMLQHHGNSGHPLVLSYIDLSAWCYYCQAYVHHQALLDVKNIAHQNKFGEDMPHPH
Experimental: as §1, §2

T1 sequence (Q13547 whole entry): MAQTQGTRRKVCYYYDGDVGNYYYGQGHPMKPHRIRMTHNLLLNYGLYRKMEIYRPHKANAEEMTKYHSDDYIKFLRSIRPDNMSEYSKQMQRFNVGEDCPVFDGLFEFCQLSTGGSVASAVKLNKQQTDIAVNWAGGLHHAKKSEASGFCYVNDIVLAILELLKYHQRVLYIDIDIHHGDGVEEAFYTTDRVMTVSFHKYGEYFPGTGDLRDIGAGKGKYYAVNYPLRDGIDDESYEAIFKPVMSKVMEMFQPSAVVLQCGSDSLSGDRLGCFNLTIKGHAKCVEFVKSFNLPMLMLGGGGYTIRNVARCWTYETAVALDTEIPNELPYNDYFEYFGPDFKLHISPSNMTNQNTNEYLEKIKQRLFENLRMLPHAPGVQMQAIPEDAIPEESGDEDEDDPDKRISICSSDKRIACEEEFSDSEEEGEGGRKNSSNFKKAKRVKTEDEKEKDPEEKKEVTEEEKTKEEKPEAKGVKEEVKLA

Compound | IC50 (human recombinant HDAC1) | HDAC6 Selectivity (fold) (human recombinant HDAC6) | IC50 (human recombinant HDAC6)
FC(F)c1nnc(-c2ccn3cc(Cc4ccccc4)nc3c2)o1 [Compound 3009, 2-(2-benzylimidazo[1,2-a]pyridin-7-yl)-5-(difluoromethyl)-1,3,4-oxadiazole] | > 50000 nM | 631 fold | 79.2 nM
Fc1cccc(Cc2cn3ccc(-c4nnc(C(F)F)o4)cc3n2)c1 [Compound 3585, 2-(difluoromethyl)-5-(2-(3-fluorobenzyl)imidazo[1,2-a]pyridin-7-yl)-1,3,4-oxadiazole] | > 50000 nM | 386 fold | 130 nM
Fc1ccc(Cc2cn3ccc(-c4nnc(C(F)F)o4)cc3n2)cc1 [Compound 3586, 2-(difluoromethyl)-5-(2-(4-fluorobenzyl)imidazo[1,2-a]pyridin-7-yl)-1,3,4-oxadiazole] | > 50000 nM | 151 fold | 330 nM
Fc1ccc(Cc2cn3ccc(-c4nnc(C(F)F)o4)cc3n2)cc1F [Compound 3587, 2-(2-(3,4-difluorobenzyl)imidazo[1,2-a]pyridin-7-yl)-5-(difluoromethyl)-1,3,4-oxadiazole] | > 50000 nM | 150 fold | 334 nM
Fc1ccc(Cc2cn3ccc(-c4nnc(C(F)F)o4)cc3n2)c(F)c1 [Compound 3588, 2-(2-(2,4-difluorobenzyl)imidazo[1,2-a]pyridin-7-yl)-5-(difluoromethyl)-1,3,4-oxadiazole] | > 50000 nM | 205 fold | 244 nM
Cc1ccc(Cc2cn3ccc(-c4nnc(C(F)F)o4)cc3n2)cc1 [Compound 3589, 2-(difluoromethyl)-5-(2-(4-methylbenzyl)imidazo[1,2-a]pyridin-7-yl)-1,3,4-oxadiazole] | > 50000 nM | 94 fold | 530 nM
COc1ccc(Cc2cn3ccc(-c4nnc(C(F)F)o4)cc3n2)cc1 [Compound 3590] | > 50000 nM | 116 fold | 432 nM
FC(F)c1nnc(-c2ccn3cc(Cc4ccc(C(F)(F)F)cc4)nc3c2)o1 [Compound 3591] | > 50000 nM | 47 fold | 1060 nM
CC(=O)c1ccc(Cc2cn3ccc(-c4nnc(C(F)F)o4)cc3n2)cc1 [Compound 3592, 1-(4-((7-(5-(difluoromethyl)-1,3,4-oxadiazol-2-yl)imidazo[1,2-a]pyridin-2-yl)methyl)phenyl)ethan-1-one] | > 50000 nM | 109 fold | 457 nM
FC(F)c1nnc(-c2ccn3cc(Cc4ccc(Cl)cc4)nc3c2)o1 [Compound 3593, 2-(2-(4-chlorobenzyl)imidazo[1,2-a]pyridin-7-yl)-5-(difluoromethyl)-1,3,4-oxadiazole] | > 50000 nM | 191 fold | 261 nM
CC(C)c1cccc(Cc2cn3ccc(-c4nnc(C(F)F)o4)cc3n2)c1 [Compound 3594, 2-(difluoromethyl)-5-(2-(3-isopropylbenzyl)imidazo[1,2-a]pyridin-7-yl)-1,3,4-oxadiazole] | > 50000 nM | 89 fold | 564 nM
CS(=O)(=O)c1ccc(Cc2cn3ccc(-c4nnc(C(F)F)o4)cc3n2)cc1 [Compound 3595, 2-(difluoromethyl)-5-(2-(4-(methylsulfonyl)benzyl)imidazo[1,2-a]pyridin-7-yl)-1,3,4-oxadiazole] | > 50000 nM | 112 fold | 444 nM
FC(F)c1nnc(-c2ccn3cc(Cc4ccc5c(c4)OCO5)nc3c2)o1 [Compound 3596, 2-(2-(benzo[d][1,3]dioxol-5-ylmethyl)imidazo[1,2-a]pyridin-7-yl)-5-(difluoromethyl)-1,3,4-oxadiazole] | > 50000 nM | 160 fold | 313 nM
FC(F)c1nnc(-c2ccn3cc(CNc4ccccc4)nc3c2)o1 [Compound 3668, N-((7-(5-(difluoromethyl)-1,3,4-oxadiazol-2-yl)imidazo[1,2-a]pyridin-2-yl)methyl)aniline] | > 50000 nM | 299 fold | 167 nM
CC(=O)c1cccc(NCc2cn3ccc(-c4nnc(C(F)F)o4)cc3n2)c1 [Compound 3669] | > 50000 nM | 426 fold | 117 nM
Fc1cccc(NCc2cn3ccc(-c4nnc(C(F)F)o4)cc3n2)c1 [Compound 3670, N-((7-(5-(difluoromethyl)-1,3,4-oxadiazol-2-yl)imidazo[1,2-a]pyridin-2-yl)methyl)-3-fluoroaniline] | > 50000 nM | 226 fold | 221 nM
Fc1ccc(NCc2cn3ccc(-c4nnc(C(F)F)o4)cc3n2)cc1F [Compound 3671, N-((7-(5-(difluoromethyl)-1,3,4-oxadiazol-2-yl)imidazo[1,2-a]pyridin-2-yl)methyl)-3,4-difluoroaniline] | > 50000 nM | 318 fold | 157 nM
Fc1ccc(NCc2cn3ccc(-c4nnc(C(F)F)o4)cc3n2)cc1Cl [Compound 3672, 3-chloro-N-((7-(5-(difluoromethyl)-1,3,4-oxadiazol-2-yl)imidazo[1,2-a]pyridin-2-yl)methyl)-4-fluoroaniline] | > 50000 nM | 464 fold | 108 nM
FC(F)c1nnc(-c2ccn3cc(CNc4ccc(C(F)(F)F)cc4)nc3c2)o1 [Compound 3673, N-((7-(5-(difluoromethyl)-1,3,4-oxadiazol-2-yl)imidazo[1,2-a]pyridin-2-yl)methyl)-4-(trifluoromethyl)aniline] | > 50000 nM | 125 fold | 400 nM
CS(=O)(=O)c1ccc(NCc2cn3ccc(-c4nnc(C(F)F)o4)cc3n2)cc1 [Compound 3674, N-((7-(5-(difluoromethyl)-1,3,4-oxadiazol-2-yl)imidazo[1,2-a]pyridin-2-yl)methyl)-4-(methylsulfonyl)aniline] | > 50000 nM | 128 fold | 391 nM
FC(F)c1nnc(-c2ccn3cc(CNc4cccnc4)nc3c2)o1 [Compound 3675, N-((7-(5-(difluoromethyl)-1,3,4-oxadiazol-2-yl)imidazo[1,2-a]pyridin-2-yl)methyl)pyridin-3-amine] | > 50000 nM | 401 fold | 125 nM
Fc1ccc(NCc2cn3ccc(-c4nnc(C(F)F)o4)cc3n2)cn1 [Compound 3676, N-((7-(5-(difluoromethyl)-1,3,4-oxadiazol-2-yl)imidazo[1,2-a]pyridin-2-yl)methyl)-6-fluoropyridin-3-amine] | > 50000 nM | 354 fold | 141 nM
FC(F)c1nnc(-c2ccn3cc(CNC45CC6CC(CC(C6)C4)C5)nc3c2)o1 [Compound 3677, (3s,5s,7s)-N-((7-(5-(difluoromethyl)-1,3,4-oxadiazol-2-yl)imidazo[1,2-a]pyridin-2-yl)methyl)adamantane-1-amine] | > 50000 nM | 196 fold | 255 nM
